Structures can show the parent of a compound that is named as a salt.
Assay: In vitro inhibition of calcium phosphate crystallization in human plasma (spectrophotometric assay)
Assay type: biochemical
Conditions: 0-100 μM, 1.5 mM phosphate, 12.5 mM calcium, pH 7.4, absorbance 550 nm, slope 6-24 min, read-out: Relative Potency
Experimental: The in vitro efficacy of the IP4-4,6 substituted derivatives (e.g., Compounds 1 to 53) of the invention on the inhibition of calcium phosphate crystallization in human plasma samples was evaluated according to a spectrophotometric assay previously described in the art (Ferrer M, et al., Sci Rep 2017; 7:6858, doi:10.1038/s41598-017-07203-x).
A 96-well plate was employed. Plasma was spiked (1 volume of the IP4-4,6 substituted derivatives of the invention per 19 volumes of plasma) with increasing concentrations of the derivatives in the range of 0-100 μM. Plasma was then centrifuged at 10,000 g at rt and subsequently mixed with a mixture of 5 mM hydrogen phosphate and 41.67 mM calcium to attain final concentrations of 1.5 mM phosphate and 12.5 mM calcium, respectively. All reagent solutions were filtered, and pH adjusted to 7.4.
Crystallization of calcium phosphate was monitored spectrophotometrically for 30 min at rt by measuring the increments in absorbance at 550 nm using the Biotek Powerwave XS Microplate spectrophotometer (BioTek Instruments, Inc., Winooski, VT, US). The plate was incubated at rt in an orbital shaker and absorbance measured every 3 min.
Plasma crystallization was assessed based on slope measurement in the linear range between 6 and 24 min from plots of increase in absorbance versus logarithm of time. The efficacy of different myo-inositol phosphates derivatives in preventing in vitro formation of calcium phosphate crystals was assessed in human plasma samples using the slopes obtained between 6- and 24-min. Inhibition of crystallization was measured by comparing the slopes of the control sample (blank plasma) with those of samples containing the inhibitor as shown below: […]

Row | Structure (SMILES) | EC50 [µM]
1 | O=C(O)CCCOC1C(OP(=O)(O)O)C(OCCCC(=O)O)C(OP(=O)(O)O)C(OP(=O)(O)O)C1OP(=O)(O)O (stereo not drawn) [Compound 52, 4,6-O-bis(3-carboxypropyl)-myo-inositol-1,2,3,5-tetrakis(phosphate) decasodium salt] | ≤ 5
2 | O=P(O)(O)OC1C(OCCCCCCCCCCO)C(OP(=O)(O)O)C(OP(=O)(O)O)C(OP(=O)(O)O)C1OCCCCCCCCCCO (stereo not drawn) [Compound 7, 4,6-O-bis(10-hydroxydecyl)-myo-inositol-1,2,3,5-tetrakis(phosphate) octasodium salt] | > 10
3 | O=C(NCCCCCOC1C(OP(=O)(O)O)C(OCCCCCNC(=O)c2ccccc2)C(OP(=O)(O)O)C(OP(=O)(O)O)C1OP(=O)(O)O)c1ccccc1 (stereo not drawn) [Compound 48, 4,6-O-bis(5-benzamidopentyl)-myo-inositol-1,2,3,5-tetrakis(phosphate) octasodium salt] | > 10
4 | CC(C)CCCOC1C(OP(=O)(O)O)C(OCCCC(C)C)C(OP(=O)(O)O)C(OP(=O)(O)O)C1OP(=O)(O)O (stereo not drawn) [Compound 21, 4,6-O-bis(4-methylpentyl)-myo-inositol-1,2,3,5-tetrakis(phosphate) octasodium salt] | > 10
5 | COC(=O)NCCCOC1C(OP(=O)(O)O)C(OCCCNC(=O)OC)C(OP(=O)(O)O)C(OP(=O)(O)O)C1OP(=O)(O)O (stereo not drawn) [Compound 24, 4,6-O-bis(3-((methoxycarbonyl)amino)propyl)-myo-inositol-1,2,3,5-tetrakis(phosphate) octasodium salt] | > 10
6 | COC(=O)NCCCCCOC1C(OP(=O)(O)O)C(OCCCCCNC(=O)OC)C(OP(=O)(O)O)C(OP(=O)(O)O)C1OP(=O)(O)O (stereo not drawn) [Compound 25, 4,6-O-bis(5-((methoxycarbonyl)amino)pentyl)-myo-inositol-1,2,3,5-tetrakis(phosphate) octasodium salt] | ≤ 5
7 | O=P(O)(O)OC1C(OCCCCCC(F)(F)F)C(OP(=O)(O)O)C(OP(=O)(O)O)C(OP(=O)(O)O)C1OCCCCCC(F)(F)F (stereo not drawn) [Compound 23, 4,6-O-bis(6,6,6-trifluorohexyl)-myo-inositol-1,2,3,5-tetrakis(phosphate) octasodium salt] | > 10
8 | NCCCCCCCCCCO[C@@H]1[C@@H](OP(=O)(O)O)[C@H](OCCCCCCCCCCN)[C@@H](OP(=O)(O)O)[C@@H](OP(=O)(O)O)[C@H]1OP(=O)(O)O [Compound 15, 4,6-O-bis(10-aminodecyl)-myo-inositol-1,2,3,5-tetrakis(phosphate) octasodium salt] | > 10
9 | O=P(O)(O)O[C@@H]1[C@@H](OCCCC(F)(F)F)[C@H](OP(=O)(O)O)[C@H](OP(=O)(O)O)[C@H](OP(=O)(O)O)[C@H]1OCCCC(F)(F)F [Compound 22, 4,6-O-bis(4,4,4-trifluorobutyl)-myo-inositol-1,2,3,5-tetrakis(phosphate) octasodium salt] | ≤ 5
10 | COCCCCCCCCC#CCCCCCCCCCOC1C(OP(=O)(O)O)C(OCCCCCCCCCC#CCCCCCCCCOC)C(OP(=O)(O)O)C(OP(=O)(O)O)C1OP(=O)(O)O (stereo not drawn) [Compound 20, 4,6-O-bis(19-methoxynonadec-10-yn-1-yl)-myo-inositol-1,2,3,5-tetrakis(phosphate) octasodium salt] | ≤ 5
11 | CCCNC(=O)NCCCCCOC1C(OP(=O)(O)O)C(OCCCCCNC(=O)NCCC)C(OP(=O)(O)O)C(OP(=O)(O)O)C1OP(=O)(O)O (stereo not drawn) [Compound 30, 4,6-O-bis(5-(3-propylureido)pentyl)-myo-inositol-1,2,3,5-tetrakis(phosphate) octasodium salt] | ≤ 5
12 | COCCCCCCCCCOC1C(OP(=O)(O)O)C(OCCCCCCCCCOC)C(OP(=O)(O)O)C(OP(=O)(O)O)C1OP(=O)(O)O (stereo not drawn) [Compound 12, 4,6-O-bis(9-methoxynonyl)-myo-inositol-1,2,3,5-tetrakis(phosphate) octasodium salt] | > 10
13 | COCCCCCOC1C(OP(O)(O)=S)C(OCCCCCOC)C(OP(O)(O)=S)C(OP(O)(O)=S)C1OP(O)(O)=S (stereo not drawn) [Compound 51, 4,6-O-bis(5-Methoxypentyl)-myo-inositol-1,2,3,5-tetrakis(thiophosphate) octasodium salt] | > 10

More lines, now with the values ahead:

Row | EC50 [µM] | Structure (SMILES)
14 | 5 to 10 | O=C(NCCCCCOC1C(OP(=O)(O)O)C(OCCCCCNC(=O)c2cccs2)C(OP(=O)(O)O)C(OP(=O)(O)O)C1OP(=O)(O)O)c1cccs1 (stereo not drawn) [Compound 49, 4,6-O-bis(5-(thiophene-2-carboxamido)pentyl)-myo-inositol-1,2,3,5-tetrakis(phosphate) octasodium salt]
15 | ≤ 5 | COCc1cn(CCCCCOC2C(OP(=O)(O)O)C(OCCCCCn3cc(COC)nn3)C(OP(=O)(O)O)C(OP(=O)(O)O)C2OP(=O)(O)O)nn1 (stereo not drawn) [Compound 38, 4,6-O-bis(5-(4-(methoxymethyl)-1H-1,2,3-triazol-1-yl)pentyl)-myo-inositol-1,2,3,5-tetrakis(phosphate) octasodium salt]
16 | > 10 | O=P(O)(O)OC1C(OCCCCCn2cncn2)C(OP(=O)(O)O)C(OP(=O)(O)O)C(OP(=O)(O)O)C1OCCCCCn1cncn1 (stereo not drawn) [Compound 17, 4,6-O-bis(5-(1H-1,2,4-triazol-1-yl)pentyl)-myo-inositol-1,2,3,5-tetrakis(phosphate) octasodium salt]
17 | ≤ 5 | O=C(O)c1cn(CCCCCCOC2C(OP(=O)(O)O)C(OCCCCCCn3cc(C(=O)O)nn3)C(OP(=O)(O)O)C(OP(=O)(O)O)C2OP(=O)(O)O)nn1 (stereo not drawn) [Compound 40, 4,6-O-(6-(4-carboxy-1H-1,2,3-triazol-1-yl)hexyl)-myo-inositol-1,2,3,5-tetrakis(phosphate) decasodium salt]
18 | 5 to 10 | COc1ccc(CCCOC2C(OP(=O)(O)O)C(OCCCc3ccc(OC)cc3)C(OP(=O)(O)O)C(OP(=O)(O)O)C2OP(=O)(O)O)cc1 (stereo not drawn) [Compound 43, 4,6-O-bis(3-(4-methoxyphenyl)propyl)-myo-inositol-1,2,3,5-tetrakis(phosphate) octasodium salt]
19 | ≤ 5 | COCc1cn(CCCCCCOC2C(OP(=O)(O)O)C(OCCCCCCn3cc(C(=O)O)nn3)C(OP(=O)(O)O)C(OP(=O)(O)O)C2OP(=O)(O)O)nn1 (stereo not drawn) [Compound 41, 4-O-(6-(4-carboxy-1H-1,2,3-triazol-1-yl)hexyl)-6-O-(6-(4-(methoxymethyl)-1H-1,2,3-triazol-1-yl)hexyl)-myo-inositol-1,2,3,5-tetrakis(phosphate) nonasodium salt]
20 | ≤ 5 | COCCCn1cc(CO[C@@H]2[C@@H](OP(=O)(O)O)[C@H](OCc3cn(CCCOC)nn3)[C@@H](OP(=O)(O)O)[C@@H](OP(=O)(O)O)[C@H]2OP(=O)(O)O)nn1 [Compound 32, 4,6-O-bis((1-(3-methoxypropyl)-1H-1,2,3-triazol-4-yl)methyl)-myo-inositol-1,2,3,5-tetrakis(phosphate) octasodium salt]
21 | > 10 | O=P(O)(O)OC1C(OCCCc2cccc(C(F)(F)F)c2)C(OP(=O)(O)O)C(OP(=O)(O)O)C(OP(=O)(O)O)C1OCCCc1cccc(C(F)(F)F)c1 (stereo not drawn) [Compound 44, 4,6-O-bis(3-(3-(trifluoromethyl)phenyl)propyl)-myo-inositol-1,2,3,5-tetrakis(phosphate) octasodium salt]

Reference: patent publication US20240109924A1, “IP4-4,6 SUBSTITUTED DERIVATIVE COMPOUNDS” (SANIFIT THERAPEUTICS, S.A., priority 2021, published 2024)
